Results taken from article PMC6222696, “Inhibition of UGT2B7 Enzyme Activity in Human and Rat Liver Microsomes by Herbal Constituents” (Molecules : A Journal of Synthetic Chemistry and Natural …, 2018).
“And” between values parts separate entries of the source, which are not always exact repeats. Identical values can stand only once. Like-named read-outs stand apart in the source and are kept apart here.

Experiments:
[1] = tested on: UGT1A1; parameters: method as in ref 26-30 (kaempferol); 26, 27, 29, 31, 38, 39 (quercetin); details: mammalian cells; ref 26-30 (kaempferol); 26, 27, 29, 31, 38, 39 (quercetin); cited from earlier work
[2] = tested on: UGT nonspecific; parameters: method as in ref 19-24 (andrographolide); 35-37 (mitragynine); 26, 27, 29, 31, 38, 39 (quercetin); details: rats; ref 19-24 (andrographolide); 35-37 (mitragynine); 26, 27, 29, 31, 38, 39 (quercetin); cited from earlier work
[3] = tested on: UGT1A9; details: HLM, supersomes, cited from earlier work
[4] = tested on: UGT1A6; parameters: method as in PMID 18001207, PMID 19889883, PMID 24553666, PMID 22958586, PMID 10660112; details: mammalian cells; cited from earlier work
[5] = tested on: UGT1A1; parameters: method as in ref 26-30 (kaempferol); 35-37 (mitragynine); 26, 27, 29, 31, 38, 39 (quercetin); details: supersomes; ref 26-30 (kaempferol); 35-37 (mitragynine); 26, 27, 29, 31, 38, 39 (quercetin); cited from earlier work
[6] = tested on: UGT nonspecific; parameters: method as in ref 26-30 (kaempferol); 26, 27, 29, 31, 38, 39 (quercetin); details: mammalian cells; ref 26-30 (kaempferol); 26, 27, 29, 31, 38, 39 (quercetin); cited from earlier work
[7] = tested on: UGT1A3; parameters: method as in ref 19-24 (andrographolide); 26-30 (kaempferol); 32-34 (mangiferin); 26, 27, 29, 31, 38, 39 (quercetin); details: supersomes; ref 19-24 (andrographolide); 26-30 (kaempferol); 32-34 (mangiferin); 26, 27, 29, 31, 38, 39 (quercetin); cited from earlier work
[8] = tested on: UGT2B17; details: supersomes; ref 31 (gallic acid); 32-34 (mangiferin); 26, 27, 29, 31, 38, 39 (quercetin); cited from earlier work
[9] = tested on: UGT2B7; parameters: method as in PMID 29425147; details: by inhibiting UGT2B7 activity; cited from earlier work
[10] = tested on: UGT enzymes; details: cited from earlier work; for inhibition of UGT enzymes in HLM with 4MU as substrate (in words): 4MU nonspecific UGT substrate
[11] = tested on: UGT1A1; parameters: method as in PMID 18001207, PMID 19889883, PMID 25008344, PMID 24553666, PMID 29574133; details: mice; cited from earlier work
[12] = tested on: UGT1A6; parameters: method as in ref 19-24 (andrographolide); 26-30 (kaempferol); 32-34 (mangiferin); 26, 27, 29, 31, 38, 39 (quercetin); details: supersomes; ref 19-24 (andrographolide); 26-30 (kaempferol); 32-34 (mangiferin); 26, 27, 29, 31, 38, 39 (quercetin); cited from earlier work
[13] = tested on: UGT2B10; parameters: method as in ref 26-30 (kaempferol); 26, 27, 29, 31, 38, 39 (quercetin); details: supersomes; ref 26-30 (kaempferol); 26, 27, 29, 31, 38, 39 (quercetin); cited from earlier work
[14] = tested on: UGT2B7; details: cited from earlier work; for UGT2B7, in vitro study: supersomes; for effect on UGT2B7 in vitro (in words): 19 (curcumin), 37, 70 (ketamine), 19, 20, 22, 23 (andrographolide)
[15] = tested on: UGT2B7; assay: ZDV glucuronidation kinetics in RLM; details: for Km at 90 min / microsomal CLint: rat; for Km at 90 min: pH 7.4, Km; for microsomal CLint: rat liver microsomes (pooled), pH 7.4, CLint, Vmax/Km
Description: (§1) An incubation mixture in a total volume of 200 µL contained 100 mM Tris-HCl buffer at pH 7.4, 5 mM MgCl2, microsomal protein (0.2 mg/mL for HLM assay and 2 mg/mL for RLM assay) and 0.1 mg/mg protein of Brij58 was kept in ice for 10 min. […] The incubation volume was made up to 200 µL with distilled water in a 1.5 mL polypropylene microcentrifuge tube. After pre-incubation at 37 °C for 10 min in a shaking water bath, a reaction was started by the addition of 5 mM UDPGA and was further incubated (120 min for HLM and 90 min for RLM). Following the incubation, the reaction was terminated by adding 100 µL ice-cold acetonitrile containing 75 µM of 4MUG as the internal standard (IS). The sample was allowed for protein precipitation on ice for 15 min, then vortexed shortly, and centrifuged at 15,000 rpm for 10 min at 4 °C. Supernatant was transferred into HPLC vials for HPLC analysis.
Once the initial velocity conditions had been established, the ZDV concentrations were varied to generate a saturation curve for determination of Michaelis constant (Km) and maximal velocity of reaction (Vmax) values of ZDV glucuronidation in HLM and RLM. The experiments were conducted in the absence and presence of BSA. Under optimized conditions, substrate concentrations used in incubation assay were varied from 0–5 mM of ZDV for HLM assay and 0–30 mM of ZDV for RLM assay. All assays were performed in triplicates (n = 3). The enzyme kinetic parameters (Km and Vmax) were obtained by fitting kinetic models to the experimental data using GraphPad Prism version 5.01 for Windows.
(§2) The ZDVG concentration formed was quantified using the calibration curve of ZDVG. Final UGT2B7 specific activity value was expressed in pmol/min/mg protein. […] Km and Vmax were determined using the same software under the enzyme-kinetic inhibition (substrate inhibition) model.

[16] = humans, cited from earlier work
[17] = rats, cited from earlier work
[18] = target: T1, UGT2B7 (Homo sapiens, UniProt P16662); assay: in vitro; details: HLM; for microsomal CLint: human liver microsomes, pH 7.4, CLint, Vmax/Km; for Km at 120 min: pH 7.4, Km, mean ± SD
T1 sequence (P16662 24-529): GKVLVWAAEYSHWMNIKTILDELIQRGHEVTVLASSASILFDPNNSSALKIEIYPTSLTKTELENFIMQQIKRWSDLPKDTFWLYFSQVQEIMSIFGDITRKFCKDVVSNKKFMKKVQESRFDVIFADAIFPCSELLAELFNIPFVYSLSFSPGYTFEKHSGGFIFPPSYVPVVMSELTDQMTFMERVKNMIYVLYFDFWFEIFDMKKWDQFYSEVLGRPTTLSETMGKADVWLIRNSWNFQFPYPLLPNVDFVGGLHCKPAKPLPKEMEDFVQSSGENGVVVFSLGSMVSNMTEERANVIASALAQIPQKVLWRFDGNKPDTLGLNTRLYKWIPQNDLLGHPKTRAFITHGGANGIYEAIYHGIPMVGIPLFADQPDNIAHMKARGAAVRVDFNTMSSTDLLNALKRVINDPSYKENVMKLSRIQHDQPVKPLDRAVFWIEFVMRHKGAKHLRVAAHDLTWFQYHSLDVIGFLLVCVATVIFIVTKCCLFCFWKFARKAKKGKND
Description: An incubation mixture in a total volume of 200 µL contained 100 mM Tris-HCl buffer at pH 7.4, 5 mM MgCl2, microsomal protein (0.2 mg/mL for HLM assay and 2 mg/mL for RLM assay) and 0.1 mg/mg protein of Brij58 was kept in ice for 10 min. […] The incubation volume was made up to 200 µL with distilled water in a 1.5 mL polypropylene microcentrifuge tube. After pre-incubation at 37 °C for 10 min in a shaking water bath, a reaction was started by the addition of 5 mM UDPGA and was further incubated (120 min for HLM and 90 min for RLM). […] The sample was allowed for protein precipitation on ice for 15 min, then vortexed shortly, and centrifuged at 15,000 rpm for 10 min at 4 °C. Supernatant was transferred into HPLC vials for HPLC analysis.
Once the initial velocity conditions had been established, the ZDV concentrations were varied to generate a saturation curve for determination of Michaelis constant (Km) and maximal velocity of reaction (Vmax) values of ZDV glucuronidation in HLM and RLM. The experiments were conducted in the absence and presence of BSA. Under optimized conditions, substrate concentrations used in incubation assay were varied from 0–5 mM of ZDV for HLM assay and 0–30 mM of ZDV for RLM assay. All assays were performed in triplicates (n = 3).
as §2

[19] = cited from earlier work; for maximum plasma concentration: humans
[20] = tested on: UGT2B7; assay: Inhibition of ZDV glucuronidation in rat liver microsomes (RLM); details: for IC50 at 90 min: rat
Description: The livers were rinsed promptly with ice-cold distilled water followed by ice-cooled 67 mM potassium phosphate buffer (pH 7.4) containing 1.15% (w/v) KCl after removal from the rats. The livers were then homogenized in three volumes of the same buffer using Potter-Elvehjem homogenizer after blotted dry and weighed. After that, the homogenate was centrifuged at 12,500× g for 20 min at 4 °C. The resultant supernatant was further centrifuged at 100,000× g for 60 min at 4 °C to obtain the microsomal pellets. Each pellet obtained was scrapped and reconstituted in 0.3 mL of 67 mM potassium phosphate buffer with 1.15% (w/v) KCl and 20% (v/v) glycerol before homogenizing them together to obtain pooled microsomes. Microsomes were then transferred into several microfuge tubes and stored at −80 °C until used.
as §1
Stock solutions for the herbal constituents were prepared at concentrations of 50 mM by dissolving them in their respective solvents. Andrographolide, arecoline, arecaidine, mangiferin and vanillin were dissolved in distilled water. […] Working solutions were prepared at concentrations of 5 mM in distilled water so that the final organic solvent concentrations in incubations were less than 2% (v/v).
(§3) Thirteen herbal constituents were screened for inhibition of ZDV glucuronidation in HLM and RLM. Screening experiments using three concentrations (1 µM, 10 µM and 100 µM) of each herbal constituent were conducted to screen for the inhibitory potential of the constituent. All incubation assays were performed in triplicate (n = 3).
The ZDVG concentration formed was quantified using the calibration curve of ZDVG. Final UGT2B7 specific activity value was expressed in pmol/min/mg protein.

[21] = target: T1, UGT2B7; assay: Inhibition of ZDV glucuronidation in human liver microsomes (HLM)
Description: as §1
Stock solutions for the herbal constituents were prepared at concentrations of 50 mM by dissolving them in their respective solvents. […] Working solutions were prepared at concentrations of 5 mM in distilled water so that the final organic solvent concentrations in incubations were less than 2% (v/v).
as §3, §2

[22] = tested on: CYP3A4; parameters: method as in PMID 15270556; details: in vitro; cited from earlier work
[23] = tested on: gluthathione-S-transferases enzyme; parameters: method as in PMID 15304356; details: in vitro; cited from earlier work
[24] = target: T1, UGT2B7; parameters: method as in PMID 24631340; details: non-competitive inhibition; read-out: inhibition constant (Ki) for ZDV glucuronidation in HLM; cited from earlier work
[25] = tested on: HLM; parameters: method as in PMID 25204783; details: cited from earlier work
[26] = IC50 for inhibition of ZDV glucuronidation in HLM, human liver microsomes, ZDV as UGT2B7 probe substrate, 1% (w/v) BSA
[27] = concentration showing 50% inhibition of ZDV glucuronidation in HLM (screening), screening at 1 µM, 10 µM and 100 µM

## O=c1c(O)c(-c2ccc(O)c(O)c2)oc2cc(O)cc(O)c12 [Quercetin, quercetin]
[1]
  UGT1A1, in vitro study: UGT1A1 ↑ (mammalian cells)
[2]
  UGT nonspecific, in vivo/ex vivo study: UGT nonspecific ↑ (rat)
[3]; RLM
  UGT1A9, in vitro study: UGT1A9 ↓ (HLM, RLM, supersomes)
[4]
  UGT1A6, in vitro study: UGT1A6 ↑ (mammalian cells)
[5]
  UGT1A1, in vitro study: UGT1A1 ↓ (supersomes)
[6]
  UGT nonspecific, in vitro study: UGT nonspecific ↑ (mammalian cells)
[7]
  UGT1A3, in vitro study: UGT1A3 ↓ (supersomes)
[8]
  UGT2B17, in vitro study: UGT2B17 ↓ (supersomes)

## C[C@@H]1[C@H]2c3cc4c(cc3O[C@@]35OCOC3=CC(=O)[C@H](C[C@H]1C)[C@@H]25)OCO4 [sauchinone]
[9]
  effect on zidovudine (ZDV) concentration in mice blood (in words): elevated

## kaempferol-3-O-rutinoside [kaempferol-3-rutinoside]
[10]
  inhibition of UGT enzymes in HLM with 4MU as substrate (in words): did not significantly inhibit

## O=c1c(O)c(-c2ccc(O)cc2)oc2cc(O)cc(O)c12 [Kaempferol]
[1]
  UGT1A1, in vitro study: UGT1A1 ↑ (mammalian cells)
[11]
  UGT1A1, in vivo/ex vivo study: UGT1A1 ↑ (mice)
[12]
  UGT1A6, in vitro study: UGT1A6 ↓ (supersomes)
[3]; HIM
  UGT1A9, in vitro study: UGT1A9 ↓ (HLM, HIM, supersomes)
[13]
  UGT2B10, in vitro study: UGT2B10 ↓ (supersomes)
[5]
  UGT1A1, in vitro study: UGT1A1 ↓ (supersomes)
[6]
  UGT nonspecific, in vitro study: UGT nonspecific ↑ (mammalian cells)
[7]
  UGT1A3, in vitro study: UGT1A3 ↓ (supersomes)
[14]; ref 26-30 (kaempferol), 35-37 (mitragynine)
  UGT2B7, in vitro study: UGT2B7 ↓ (supersomes)

## Cc1cn([C@H]2C[C@H](N=[N+]=[N-])[C@@H](CO)O2)c(=O)[nH]c1=O [zidovudine, 3′-Azido-3′-deoxythymidine]
[15]; with 1% BSA, mean ± SD
  Km at 90 min: 6.77 ± 0.6 mM
[15]; without 1% BSA, mean ± SD
  Km at 90 min: 8.84 ± 1.19 mM
  Vmax: 770 ± 39.82 pmol/mg/min
[15]; with 1% BSA
  microsomal CLint: 0.16 µL/min/mg
[15]; without 1% BSA
  microsomal CLint: 0.09 µL/min/mg
[16]; for 70 kg of man
  in vivo systemic clearance: 16.8 mL/min/kg
[16]
  dose excreted as glucuronides: approximately 75%
[17]; for 0.25 kg of rat
  in vivo systemic clearance: 3 mL/min/kg
[17]
  dose excreted as glucuronides: ~10%
[18]; with 1% BSA
  microsomal CLint: 1.65 µL/min/mg
  Km at 120 min: 0.88 ± 0.05 mM
[18]; without 1% BSA
  microsomal CLint: 0.32 µL/min/mg
  Km at 120 min: 3.4 ± 0.7 mM

## CNC1(c2ccccc2Cl)CCCCC1=O (centres unmarked) [ketamine, reference compound]
[14]
  effect on UGT2B7 in vitro (in words): inhibit

## CCC1CN2CCc3c([nH]c4cccc(OC)c34)C2CC1/C(=C\OC)C(=O)OC (centres unmarked) [mitragynine]
[19]; M. speciosa tea with 11 mg mitragynine for seven days then 23 mg on the eighth day
  maximum plasma concentration: 0.105 µg/mL and 0.26 µM
[2]
  UGT nonspecific, in vivo/ex vivo study: UGT nonspecific ↑ (rats)
[20]; pH 7.4, IC50 for inhibition of ZDV glucuronidation in RLM, rat liver microsomes, ZDV as probe substrate, 1% (w/v) BSA
  IC50 at 90 min: 51.2 ± 5.95 µM
[20]; pH 7.4, concentration inhibiting ZDV glucuronidation in RLM higher than 50% (screening), screening at 1 µM, 10 µM and 100 µM
  IC50 at 90 min: < 100 µM
[21]; [26]
  IC50: 8.11 ± 4.48 µM
[21]; [27]
  IC50: < 100 µM
[10]; at a concentration of 1 μM
  inhibition of 4MU glucuronidation in HLM: approximately 30 % of control activity
[10]; read-out: IC50 for 4MU glucuronidation in HLM
  IC50: > 1000 µM

## C/C1=C\CC(C)(C)/C=C/C(=O)/C(C)=C/CC1 [zerumbone]
[22]
  effect on metabolism mediated by CYP3A4 (in words): moderately inhibit
[23]
  effect on Phase II gluthathione-S-transferases enzyme (in words): induce
[20]; rat liver microsomes (pooled), pH 7.4, probe zidovudine (ZDV), at or below its Km, IC50 for inhibition of ZDV glucuronidation in RLM, rat liver microsomes, ZDV as probe substrate, 1% (w/v) BSA
  IC50 at 90 min: 8.14 ± 2.12 µM
[20]; rat liver microsomes (pooled), pH 7.4, probe zidovudine (ZDV), at or below its Km, concentration inhibiting ZDV glucuronidation in RLM higher than 50% (screening), screening at 1 µM, 10 µM and 100 µM
  IC50 at 90 min: < 100 µM
[21]; [26]
  IC50: 4.57 ± 0.23 µM
[21]; [27]
  IC50: < 100 µM

## C=C1CC[C@@H]2[C@](C)(CO)[C@H](O)CC[C@@]2(C)[C@@H]1C/C=C1/C(=O)OC[C@H]1O [Andrographolide, andrographolide]
[19]; oral 20 mg of andrographolide four times a day
  maximum plasma concentration: 1.34 µg/mL and 3.8 µM
[19]; ingestion of 32.64 mg of andrographolide three times a day
  maximum concentration in plasma: 32.41 ng/mL and 0.09 µM
[19]; ingestion of 200 mg of andrographolide three times a day
  maximum concentration in plasma: 58.6 ng/mL and 0.17 µM
[2]
  UGT nonspecific, in vivo/ex vivo study: UGT nonspecific ↑ (rats)
[24]
  Ki: 6.1 µM
[20]; rat liver microsomes
  inhibition of ZDV glucuronidation in RLM (in words): weak inhibition
[25]
  glucuronidation as a substrate in HLM (in words): glucuronidated
[14]
  effect on UGT2B7 in vitro (in words): inhibit
[14]; HLM
  UGT2B7, in vitro study: UGT2B7 ↓ (HLM, supersomes)
[21]; [26]
  IC50: 6.18 ± 1.27 µM
[21]; [27]
  IC50: < 100 µM
[10]
  inhibition of UGT enzymes in HLM with 4MU as substrate (in words): weak inhibition
